# Where two headings read alike, the source gives them in different places.
# Tests used:
# [1] = Mouse PK analysis, plasma; type: in vivo; settings: for Cmax: female, CD-1, mouse, plasma, dosed intravenously (i.v.)
# [2] = Mouse PK analysis, large intestine; type: in vivo; settings: for AUC(0-t): female, CD-1, mouse, large intestine, read-out: Large Intestinal pK AUClast (converted)
# DLD-1 cells = experiment: Sensitivity of DLD-1 versus HCT-116 cells to EBP inhibitors; type: cell-based, human; settings: varying doses
Compound,melting point [°C],other results
"Cc1ccc(S(=O)(=O)N2CCC(N3CCC(C)CC3)CC2)cc1C [compound 37, 1′-((3,4-Dimethylphenyl)sulfonyl)-4-methyl-1,4′-bipiperidine]",87 to 89,
"CC1CCN(C2CCN(S(=O)(=O)c3ccc(OC(F)F)cc3)CC2)CC1 [compound 22, 1′-((4-(Difluoromethoxy)phenyl)sulfonyl)-4-methyl-1,4′-bipiperidine]",132 to 135,"oral bioavailablity ([1]; 20 mg/kg): 52%; Cmax ([1]; iv): 191 to 742 ng/mL; Plasma pK AUClast (ng · min/mL) ([1]; ip, 10 mg/kg): 205,914 ng · min/mL; Plasma pK Cmax (ng/mL) ([1]; ip, 10 mg/kg): 1,117 ng/mL; Plasma pK Tmax (min) ([1]; ip, 10 mg/kg): 10 min; Plasma pK Vz (mL) ([1]; ip, 10 mg/kg): 156 mL; Plasma pK AUClast (ng · min/mL) ([1]; iv, 5 mg/kg): 197,571 ng · min/mL; Plasma pK Cmax (ng/mL) ([1]; iv, 5 mg/kg): 742 ng/mL; Plasma pK Tmax (min) ([1]; iv, 5 mg/kg): 10 min; Plasma pK Vz (mL) ([1]; iv, 5 mg/kg): 135 mL; Plasma pK AUClast (ng · min/mL) ([1]; po, 20 mg/kg): 328,296 ng · min/mL; Plasma pK Cmax (ng/mL) ([1]; po, 20 mg/kg): 691 ng/mL; Plasma pK Vz (mL) ([1]; po, 20 mg/kg): 153 mL; AUC(0-t) ([2]; ip, 10 mg/kg): 13200 ng·h/mL; AUC(0-t) ([2]; iv, 5 mg/kg): 8530 ng·h/mL; AUC(0-t) ([2]; po, 20 mg/kg): 14800 ng·h/mL; Large Intestinal pK Tmax (min) ([2]; po, 20 mg/kg): 10 min"
"COc1ccc(OC)c(S(=O)(=O)N2CCC(N3CCC(C)CC3)CC2)c1 [compound 32, 1′-((2,5-Dimethoxyphenyl)sulfonyl)-4-methyl-1,4′-bipiperidine]",75 to 78,
"CC1CCN(C2CCN(S(=O)(=O)c3ccccc3)CC2)CC1 [compound 5, 4-methyl-1′-(phenylsulfonyl)-1,4′-bipiperidine]",154 to 156,
"Cc1cc(C)c(S(=O)(=O)N2CCC(CO)CC2)c(C)c1 [compound 137, (1-(mesitylsulfonyl)piperidin-4-yl)methanol]",85 to 88,
"CC1CCN(C2CCN(S(=O)(=O)c3cccc(-c4ccc(Cl)cc4)c3)CC2)CC1 [compound 62, 1′-((4′-Chloro-[1,1′-biphenyl]-3-yl)sulfonyl)-4-methyl-1,4′-bipiperidine]",124 to 126,
"CC1CCN(C2CCN(S(=O)(=O)c3ccc(Cl)c4ccccc34)CC2)CC1 [compound 88, 1′-((4-Chloronaphthalen-1-yl)sulfonyl)-4-methyl-1,4′-bipiperidine]",129 to 132,
"CC1CCN(C2CCN(S(=O)(=O)c3nccn3C)CC2)CC1 [compound 77, 4-Methyl-1′-((1-methyl-1H-imidazol-2-yl)sulfonyl)-1,4′-bipiperidine]",153 to 156,
"CC1CCN(C2CCN(S(=O)(=O)c3cn(C)cn3)CC2)CC1 [compound 78, 4-Methyl-1′-((1-methyl-1H-imidazol-4-yl)sulfonyl)-1,4′-bipiperidine]",139 to 142,
"Cc1cc(C)c(S(=O)(=O)N2CCC(N3CCC(c4ccccc4)CC3)CC2)c(C)c1 [compound 111, 1′-(Mesitylsulfonyl)-4-phenyl-1,4′-bipiperidine]",141 to 144,
"COc1ccc(-c2ccc(S(=O)(=O)N3CCC(N4CCC(C)CC4)CC3)cc2)cc1 [compound 58, 1′-((4′-Methoxy-[1,1′-biphenyl]-4-yl)sulfonyl)-4-methyl-1,4′-bipiperidine]",195 to 198,
"CC1CCN(C2CCN(S(=O)(=O)c3ccccc3-c3ccccc3)CC2)CC1 [compound 51, 1′-([1,1′-Biphenyl]-2-ylsulfonyl)-4-methyl-1,4′-bipiperidine]",106 to 109,
"COc1ccc(S(=O)(=O)N2CCC(N3CCC(C)CC3)CC2)cc1 [compound 6, 1′-((4-methoxyphenyl)sulfonyl)-4-methyl-1,4′-bipiperidine]",,"Plasma pK AUClast (ng · min/mL) ([1]; ip, 10 mg/kg): 104,103 ng · min/mL; Plasma pK Cmax (ng/mL) ([1]; ip, 10 mg/kg): 2,390 ng/mL; Plasma pK Tmax (min) ([1]; ip, 10 mg/kg): 10 min; Plasma pK Vz (mL) ([1]; ip, 10 mg/kg): 162 mL; AUC(0-t) ([2]; ip, 10 mg/kg): 12300 ng·h/mL"
"Cc1cc(C)c(S(=O)(=O)N2CCC(NC3CCCC3)CC2)c(C)c1 [compound 132, N-cyclopentyl-1-(mesitylsulfonyl)piperidin-4-amine]",88 to 92,
"CC1CCN(C2CCN(S(=O)(=O)c3cccnc3)CC2)CC1 [compound 71, 4-Methyl-1′-(pyridin-3-ylsulfonyl)-1,4′-bipiperidine]",144 to 147,
"CC1CCN(C2CCN(S(=O)(=O)c3ccc(OC(F)(F)F)cc3)CC2)CC1 [compound 21, 4-Methyl-1′-((4-(trifluoromethoxy)phenyl)sulfonyl)-1,4′-bipiperidine]",168 to 170,
"CC1CCN(C2CCN(S(=O)(=O)c3cccc4cnccc34)CC2)CC1 [compound 90, 5-((4-Methyl-[1,4′-bipiperidin]-1′-yl)sulfonyl)isoquinoline]",123 to 126,
"Cc1ccc(C2CCN(S(=O)(=O)c3c(C)cc(C)cc3C)CC2)cc1 [compound 115, 1-(Mesitylsulfonyl)-4-(p-tolyl)piperidine]",87 to 90,
"CC1CCN(C2CCN(S(=O)(=O)c3cccc(C(F)(F)F)c3)CC2)CC1 [compound 27, 4-Methyl-1′-((3-(trifluoromethyl)phenyl)sulfonyl)-1,4′-bipiperidine]",123 to 125,
"CC1CCN(CC2CCN(S(=O)(=O)c3ccc4ncsc4c3)CC2)CC1 [compound 148, 6-((4-((4-methylpiperidin-1-yl)methyl)piperidin-1-yl)sulfonyl)benzo[d]thiazole]",137 to 139,

Compound,melting point [°C],other results
"CC1CCN(C2CCN(S(=O)(=O)c3cc(Cl)cc(Cl)c3)CC2)CC1 [compound 42, 1′-((3,5-Dichlorophenyl)sulfonyl)-4-methyl-1,4′-bipiperidine]",128 to 131,
"CC1CCN(C2CCN(S(=O)(=O)c3ccc(Br)cc3)CC2)CC1 [compound 17, 1′-((4-Bromophenyl)sulfonyl)-4-methyl-1,4′-bipiperidine]",165 to 168,
"Cc1cc(C)c(S(=O)(=O)N2CCN(C3CN4CCC3CC4)CC2)c(C)c1 (stereo not shown) [compound 127, 3-(4-(Mesitylsulfonyl)piperazin-1-yl)quinuclidine]",> 300,
"COc1ccc2c(c1)CCC(c1ccccc1)=C2c1ccc(OCCN2CCCC2)cc1 [Nafoxidine, nafoxidine]",,selective sensitivity of DLD-1 versus HCT-116 cells (DLD-1 cells): selectively sensitive
"COc1ccc(S(=O)(=O)N2CCC(N3CCC(C)CC3)CC2)cc1OC [compound 31, 1′-((3,4-Dimethoxyphenyl)sulfonyl)-4-methyl-1,4′-bipiperidine]",132 to 134,
"CC1CCN(C2CCN(S(=O)(=O)c3ccc(C(F)(F)F)cc3)CC2)CC1 [compound 15, 4-Methyl-1′-((4-(trifluoromethyl)phenyl)sulfonyl)-1,4′-bipiperidine]",175 to 178,
"CCc1cc(Br)ccc1S(=O)(=O)N1CCC(N2CCC(C)CC2)CC1 [compound 38, 1′-((4-Bromo-2-ethylphenyl)sulfonyl)-4-methyl-1,4′-bipiperidine]",87 to 91,
"CC1CCN(C2CCN(S(=O)(=O)c3cc(Br)cc4c3OCC4)CC2)CC1 [compound 86, 1′-((5-Bromo-2,3-dihydrobenzofuran-7-yl)sulfonyl)-4-methyl-1,4′-bipiperidine]",128 to 132,
"C#CCC1CCN(C2CCN(S(=O)(=O)c3ccc(Br)cc3)CC2)CC1 [compound 92, 1′-((4-Bromophenyl)sulfonyl)-4-(prop-2-yn-1-yl)-1,4′-bipiperidine]",161 to 164,
"CC1CCN(C2CCN(S(=O)(=O)c3cnc(Cl)s3)CC2)CC1 [compound 80, 2-Chloro-5-((4-methyl-[1,4′-bipiperidin]-1′-yl)sulfonyl)thiazole]",141 to 143,
"Cc1cc(C)c(S(=O)(=O)N2CCC(c3ccccc3)CC2)c(C)c1 [compound 116, 1-(Mesitylsulfonyl)-4-phenylpiperidine]",88 to 90,
"CC1CCN(C2CCN(S(=O)(=O)c3ccc(Cl)cc3)CC2)CC1 [compound 16, 1′-((4-Chlorophenyl)sulfonyl)-4-methyl-1,4′-bipiperidine]",152 to 155,"Cmax ([1]; iv): 191 to 742 ng/mL; Plasma pK AUClast (ng · min/mL) ([1]; iv, 10 mg/kg): 21,581 ng · min/mL; Plasma pK Cmax (ng/mL) ([1]; iv, 10 mg/kg): 191 ng/mL; Plasma pK Tmax (min) ([1]; iv, 10 mg/kg): 30 min; Plasma pK Vz (mL) ([1]; iv, 10 mg/kg): 1243 mL; AUC(0-t) ([2]; iv, 10 mg/kg): 4380 ng·h/mL; Large Intestinal pK Tmax (min) ([2]; iv, 10 mg/kg): 10 min"
"Cc1ccc(S(=O)(=O)N2CCC(N3CCC(C)CC3)CC2)cc1 [compound 11, 4-Methyl-1′-tosyl-1,4′-bipiperidine]",139 to 142,
"CC1CCN(C2CCN(S(=O)(=O)c3ccc(Cl)cc3Cl)CC2)CC1 [compound 41, 1′-((2,4-Dichlorophenyl)sulfonyl)-4-methyl-1,4′-bipiperidine]",75 to 78,
"CC1CCN(C2CCN(C(=O)c3ccc(OC(F)(F)F)cc3)CC2)CC1 [compound 119, (4-Methyl-[1,4′-bipiperidin]-1′-yl)(4-(trifluoromethoxy)phenyl)methanone]",72 to 75,
"CC1CCN(C2CCN(S(=O)(=O)c3cccc(-c4ccccc4C(F)(F)F)c3)CC2)CC1 [compound 68, 4-Methyl-1′-((2′-(trifluoromethyl)-[1,1′-biphenyl]-3-yl)sulfonyl)-1,4′-bipiperidine]",110 to 112,
"CC1CCN(C2CCN(S(=O)(=O)c3ccc(-c4ccccc4)cc3)CC2)CC1 [compound 56, 1′-([1,1′-Biphenyl]-4-ylsulfonyl)-4-methyl-1,4′-bipiperidine]",178 to 181,
"CCCCOc1ccc(S(=O)(=O)N2CCC(N3CCC(C)CC3)CC2)cc1 [compound 19, 1′-((4-Butoxyphenyl)sulfonyl)-4-methyl-1,4′-bipiperidine]",137 to 139,
"CC1CCN(C2CCN(S(=O)(=O)c3ccc([N+](=O)[O-])c(C(F)(F)F)c3)CC2)CC1 [compound 35, 4-Methyl-1′-((4-nitro-3-(trifluoromethyl)phenyl)sulfonyl)-1,4′-bipiperidine]",175 to 178,

# Reference: patent US20220024891A1 (The Board of Regents of the University of Texas System, priority 2018, published 2022)
